Results published in article PMC6467574 (Journal of controlled release : official journal of the …, 2018).
Read-outs that look alike come from different tables or passages of the source.

How the values were obtained:
[1] = system: Caco-2:HT29-MTX-E12 co-culture monolayers; conditions: human, 100 min
[2] = Supersaturation-precipitation; format: physicochemical; conditions: for Duration intended degree of drug supersaturation was maintained / Time to drug precipitation: base buffer, preliminary experiments, SSR 5 (CVDL) / 6 (PXM)
Caco-2 monolayers = conditions: human, 100 min
[3] = Equilibrium solubility determination in test media; format: physicochemical; conditions: 37 °C; for Equilibrium solubility, effect of addition of mucin: 0.1, 0.2, 0.4 %w/v mucin in 10 mM phosphate buffer pH 6.50 relative to buffer; for Equilibrium solubility, effect of addition of 8 %w/v PIM: 8 %w/v native pig intestinal mucus in 10 mM phosphate buffer pH 6.50 relative to buffer
[4] = 1 SSR (multiple of equilibrium solubility)
[5] = 5 SSR (multiple of equilibrium solubility)

With `COc1ccccc1OCCNCC(O)COc1cccc2[nH]c3ccccc3c12` (stereo not drawn) [CVDL, Carvedilol] the “TEER relative to starting value” [1, 4] was over 80 % starting value, the “TEER relative to starting value” [1, 5] was ~ 60 % starting value and the “Time drug remained supersaturated” value ([2]; SSR = 5, 8 %w/v native PIM, ISE) was 24 h. The “Time to precipitation (Tss), effect of increasing mucin concentration” value ([2]; SSR = 5, ISE, up to 0.2 %w/v mucin) was “significantly increased”, the “Time within which supersaturated drug precipitated (ISE)” value ([2]; SSR = 5, absence of mucus, ISE, average ± SEM, n=3) was 19 ± 4 min and the “Time after which drug precipitated (HPLC)” value ([2]; SSR = 5, buffer solution, HPLC analysis) was over 10 min. The “SSR maintained throughout the monitoring period” value ([2]; SSR = 5 induced, 0.4 %w/v mucin, ISE, 24 h) was over 3, the “SSR maintained throughout the monitoring period” value ([2]; SSR = 5 induced, 8 %w/v PIM, ISE, 24 h) was over 3 and the “Duration intended degree of drug supersaturation was maintained” value [2] was “at least 5 min”. For the same compound, the “Time to drug precipitation” value [2] was at most 1 h, the “TEER relative to starting value” (Caco-2 monolayers; [4]) was over 80 % starting value and the “TEER relative to starting value” (Caco-2 monolayers; [5]) was ~ 60 % starting value. For the same compound, the “Equilibrium solubility, effect of addition of mucin” value [3] was “did not change” and the “Equilibrium solubility, effect of addition of 8 %w/v PIM” value [3] was “significantly increased”.

In the case of `CN1C(C(=O)Nc2ccccn2)=C(O)c2ccccc2S1(=O)=O` [PXM, piroxicam], the “Time after which drug started to precipitate” value ([2]; SSR = 6, buffer alone, HPLC) is reported as over 5 h, the “SSR reached at 24 h” value ([2]; SSR = 6 induced, buffer alone, HPLC) is reported as ~ 4 and the “SSR maintained throughout the monitoring period” value ([2]; SSR = 6 induced, presence of mucin (regardless of concentration) and PIM, HPLC) is reported as 6. The “Duration intended degree of drug supersaturation was maintained” value [2] was “at least 5 min”, the “Time to drug precipitation” value [2] was at most 5 h and the “Equilibrium solubility, effect of addition of mucin” value [3] was “appeared to increase”. For the same compound, the “Equilibrium solubility, effect of addition of 8 %w/v PIM” value [3] was “significantly increased”.
